# Experimental data: paper PMC7343746, “(2S, 4R)-4-[^18F]Fluoroglutamine for In vivo PET Imaging of Glioma Xenografts in Mice: an Evaluation of Multiple Pharmacokinetic Models” (Molecular Imaging and Biology, 2020)
# Legend:
# [1] = system: patient-derived BT3 glioma cells; experiment: Ex vivo autoradiography of brain cryosections, orthotopic glioma; assay type: in vivo, BALB/cOlaHsd-Foxn1^nu mouse; conditions: for Autoradiography TBRmean: n = 12 brain sections
# Description: (§1) See Suppl. Materials in ESM for detailed descriptions of biodistribution, stability, cryosectioning, autoradiography, and histology.
# [2] = system: patient-derived BT3 glioma cells; experiment: Patlak plot (irreversible uptake model), orthotopic model; assay type: in vivo, BALB/cOlaHsd-Foxn1^nu mouse; conditions: for Patlak Ic (AB) y intercept: AB input; for Patlak Ic (PC) y intercept: PC input
# Procedure: (§2) Image analysis was performed using CARIMAS software published and freely distributed by the Turku PET Center (http://turkupetcentre.fi/carimas/). CT scans were used as rough anatomical reference while tumor regions of interest (ROI) were hand-drawn based upon observed spikes of radioactivity in the PET images at locations correlating with recorded tumor grafts. Control muscle ROIs were drawn on the side opposite to the tumor in the leg flank muscle (based on CT) while the blood ROI was drawn based upon heart anatomical location and observed PET image radioactivity spike during the initial 20 s of imaging in the left ventricle. Standardized uptake values (SUV) were calculated with respect to ROI volume, mean and max tumor radioactivity, total injected radioactivity dose (corrected for tail, cannula, and syringe residual radioactivity), and animal weight, and were additionally presented as tumor-to-background ratio (TBR, tumor-to-healthy brain region for intracranial gliomas and tumor-to-muscle for subcutaneous gliomas) as defined by recent glioma research literature standards. Mean and maximum TBR values were reported as ROI radioactivity per volume divided by mean background radioactivity per volume. The blood radioactivity SUV and gender-specific metabolite-corrected blood radioactivity SUV were then applied to multiple pharmacokinetic models to characterize the flux of the tracer (further described in the “Modeling” section).
# (§3) Using the heart’s left ventricle ROI from the PET data as an uncorrected radioactivity level input and the bioavailable parent-tracer fraction (results: Eqs. 3 and 4 applied to the uncorrected input) as the corrected input, multiple models were investigated to characterize the tissue uptake dynamics. Two-compartment modeling and Logan, Patlak, and Yokoi plots were used to separately model the pharmacokinetics for the gliomas (both subcutaneous and orthotopic loci) and their respective control tissues (healthy muscle and healthy brain, respectively). Where indicated, means plus/minus standard deviations are reported. Difference in parameters for uncorrected versus correct and target tissue versus their respective control regions were tested with students’ paired t tests with P values lower than 0.05 being considered significant.
# rat BT4C glioma cells = experiment: Ex vivo biodistribution; assay type: in vivo, Foxn1^nu/nu mouse; conditions: higher than subcutaneous tumor
# Description: as §1
# Ex Vivo Biodistribution Results
# The tracer accumulated highly in the pancreatic tissue with notable high uptake in the skull (bo ne) and femur (bone + marrow). The bone uptake is classically characteristic of defluorination occurring which leads to absorption into the osseous tissue. […]
# adipose tissue likely due to the comparative increased number of metabolic processes which encompass its cell type characteristics.
# Supplemental Fig. 11. Ex vivo biodistribution averages of [ 18F]FGln uptake 63 minutes post-injection in subcutaneously xenografted BT4C tumor bearing Foxn1 nu/nu mice (female, n = 5) and control C57BL/6JRj […]
# [3] = In vivo stability analysis, plasma precipitation assay; set-up: species or system C57BL/6J and Foxn1^nu/nu mice; conditions: after 60 min
# Procedure: Tracer in vivo stability studies were performed with 12 mice consisting of two groups; 6 1-year-old male C57BL/6J and 6 3-month-old female Foxn1^nu/nu mice.
# Twelve non-tumor-bearing control mice (6 C57BL/6J and 6 Foxn1^nu/nu) were injected with 9–14 MBq of tracer before a 200-μL blood sample was drawn into a heparinized vial and kept on ice. After 15 min, a second sample was collected during animal sacrifice. Whole blood was weighed and measured for radioactivity before being centrifuged at 730×g and 5 °C for 5 min, separated into plasma and blood cell fractions, and then separately weighed and measured. The values were used along with age, gender, and animal model-specific hematocrit values (reported by suppliers) to calculate the plasma radioactivity fraction of the whole-blood radioactivity (Eq. 1):1 Plasma Activity Fraction=Cp/CRBC+Cp=ρpCpHCT/ρbCb−ρpCp1−HCT+ρpCpHCT where C = radioactivity concentration, ρ = density, and HCT = hematocrit. […]
# Aliquots of plasma were precipitated with 2.5 × (volume) methanol, vortexed, and centrifuged at 11,000×g for 5 min. The pellet and supernatant fractions were separated and measured for radioactivity to give the radioactivity fraction of the plasma that was trapped or bound to proteins (Eq. 2):2 Unbound plasma fraction=Csup/Cpel+Csup where C = radioactivity of subscripts which denote the following: sup = supernatant and pel = pellet. […]
# [4] = system: patient-derived BT3 glioma cells; experiment: Yokoi plot, orthotopic model; assay type: in vivo, BALB/cOlaHsd-Foxn1^nu mouse; conditions: for Yokoi K1 (AB) plasma to tissue transport rate / Yokoi K1/k2 (AB) binding potential / Yokoi k2 (AB) tissue to plasma transport rate: AB input; for Yokoi K1 (PC) plasma to tissue transport rate / Yokoi K1/k2 (PC) binding potential / Yokoi k2 (PC) tissue to plasma transport rate: PC input
# Procedure: as §2, §3
compound,measurement,setting,value
"NC(=O)[C@H]([18F])C[C@H](N)C(=O)O [[^18F]FGln, (2S, 4R)-4-[^18F]fluoroglutamine]",Autoradiography TBRmean,[1]; Subject A,8.9 ± 1.1 (range 7.2–10.5)
same,Autoradiography TBRmean,[1]; Subject B,9.9 ± 0.7 (range 8.9–11.0)
same,Autoradiography TBRmean,[1]; Subject C,7.8 ± 0.4 (range 7.3–8.4)
same,"Autoradiography TBR, average","[1]; n = 3 subjects, 36 sections",8.9 ± 1.1
same,Patlak Ic (AB) y intercept,[2]; Subject A brain (control),0.1654
same,Patlak Ic (PC) y intercept,[2]; Subject A brain (control),0.2100
same,Patlak Ic (AB) y intercept,[2]; Subject A glioma max.,1.07
same,Patlak Ic (PC) y intercept,[2]; Subject A glioma max.,1.4536
same,Patlak Ic (AB) y intercept,[2]; Subject A o.t. glioma,0.7386
same,Patlak Ic (PC) y intercept,[2]; Subject A o.t. glioma,0.9480
same,Patlak Ic (AB) y intercept,[2]; Subject B brain (control),0.1316
same,Patlak Ic (PC) y intercept,[2]; Subject B brain (control),0.1563
same,Patlak Ic (AB) y intercept,[2]; Subject B glioma max.,0.4556
same,Patlak Ic (PC) y intercept,[2]; Subject B glioma max.,0.5434
same,Patlak Ic (AB) y intercept,[2]; Subject B o.t. glioma,0.4687
same,Patlak Ic (PC) y intercept,[2]; Subject B o.t. glioma,0.5996
same,Pancreas uptake relative to tumor,rat BT4C glioma cells,6 fold
same,Plasma radioactivity bound to or incorporated into proteins,[3],roughly 25%
same,Yokoi K1 (AB) plasma to tissue transport rate,[4]; Subject A brain (control),0.018 mL min-1 mL-1
same,Yokoi K1/k2 (AB) binding potential,[4]; Subject A brain (control),0.34 mL mL-1
same,Yokoi k2 (AB) tissue to plasma transport rate,[4]; Subject A brain (control),0.054 min⁻¹
same,Yokoi K1 (PC) plasma to tissue transport rate,[4]; Subject A brain (control),0.019 mL min-1 mL-1
same,Yokoi K1/k2 (PC) binding potential,[4]; Subject A brain (control),0.68 mL mL-1
same,Yokoi k2 (PC) tissue to plasma transport rate,[4]; Subject A brain (control),0.028 min⁻¹
same,Yokoi K1 (AB) plasma to tissue transport rate,[4]; Subject A glioma max.,0.120 mL min-1 mL-1
same,Yokoi K1/k2 (AB) binding potential,[4]; Subject A glioma max.,1.59 mL mL-1
same,Yokoi k2 (AB) tissue to plasma transport rate,[4]; Subject A glioma max.,0.075 min⁻¹
same,Yokoi K1 (PC) plasma to tissue transport rate,[4]; Subject A glioma max.,0.121 mL min-1 mL-1
same,Yokoi K1/k2 (PC) binding potential,[4]; Subject A glioma max.,2.95 mL mL-1
same,Yokoi k2 (PC) tissue to plasma transport rate,[4]; Subject A glioma max.,0.041 min⁻¹
same,Yokoi K1 (AB) plasma to tissue transport rate,[4]; Subject A o.t. glioma,0.078 mL min-1 mL-1
same,Yokoi K1/k2 (AB) binding potential,[4]; Subject A o.t. glioma,1.50 mL mL-1
same,Yokoi k2 (AB) tissue to plasma transport rate,[4]; Subject A o.t. glioma,0.052 min⁻¹
same,Yokoi K1 (PC) plasma to tissue transport rate,[4]; Subject A o.t. glioma,0.083 mL min-1 mL-1
same,Yokoi K1/k2 (PC) binding potential,[4]; Subject A o.t. glioma,2.96 mL mL-1
same,Yokoi k2 (PC) tissue to plasma transport rate,[4]; Subject A o.t. glioma,0.028 min⁻¹
same,Yokoi K1 (AB) plasma to tissue transport rate,[4]; Subject B brain (control),0.015 mL min-1 mL-1
same,Yokoi K1/k2 (AB) binding potential,[4]; Subject B brain (control),0.33 mL mL-1
same,Yokoi k2 (AB) tissue to plasma transport rate,[4]; Subject B brain (control),0.045 min⁻¹
same,Yokoi K1 (PC) plasma to tissue transport rate,[4]; Subject B brain (control),0.015 mL min-1 mL-1
same,Yokoi K1/k2 (PC) binding potential,[4]; Subject B brain (control),0.69 mL mL-1
same,Yokoi k2 (PC) tissue to plasma transport rate,[4]; Subject B brain (control),0.022 min⁻¹
same,Yokoi K1 (AB) plasma to tissue transport rate,[4]; Subject B glioma max.,0.046 mL min-1 mL-1
same,Yokoi K1/k2 (AB) binding potential,[4]; Subject B glioma max.,1.29 mL mL-1
same,Yokoi k2 (AB) tissue to plasma transport rate,[4]; Subject B glioma max.,0.036 min⁻¹
same,Yokoi K1 (PC) plasma to tissue transport rate,[4]; Subject B glioma max.,0.049 mL min-1 mL-1
same,Yokoi K1/k2 (PC) binding potential,[4]; Subject B glioma max.,2.79 mL mL-1
same,Yokoi k2 (PC) tissue to plasma transport rate,[4]; Subject B glioma max.,0.017 min⁻¹
same,Yokoi K1 (AB) plasma to tissue transport rate,[4]; Subject B o.t. glioma,0.045 mL min-1 mL-1
same,Yokoi K1/k2 (AB) binding potential,[4]; Subject B o.t. glioma,0.99 mL mL-1
same,Yokoi k2 (AB) tissue to plasma transport rate,[4]; Subject B o.t. glioma,0.046 min⁻¹
same,Yokoi K1 (PC) plasma to tissue transport rate,[4]; Subject B o.t. glioma,0.047 mL min-1 mL-1
same,Yokoi K1/k2 (PC) binding potential,[4]; Subject B o.t. glioma,1.96 mL mL-1
same,Yokoi k2 (PC) tissue to plasma transport rate,[4]; Subject B o.t. glioma,0.024 min⁻¹
